# Experimental data from patent publication US6479435B1, “Diaryl ethers and processes for their preparation and herbicidal and desiccant compositions containing them” (ISK Americas Incorporated, priority 1997, dated 2002).
# Experiments:
# Assay type in all cases: in vivo
# [1] = system: soybean (Glycine max L., var. Pella 86, SOY); assay: Post-emerge greenhouse test, crop damage rating; details: 14 days after application
# How it was run: (§1)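 Plants at the 2-3 leaf stage, sown 8-21 days earlier, were track-sprayed post-emergence with compound in acetone plus 0.25% v/v non-ionic surfactant at 63-1000 g ai/ha (187 l/ha). Damage was rated at 14 days on a 0-100 scale (0 none, 100 all plants dead), for both crop injury and weed control.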
# [2] = system: Johnsongrass (Sorghum halepense, SORHA); assay: Pre-emerge greenhouse herbicide test, phytotoxicity rating; details: 14 days after application, rating scale 0-100
# How it was run: (§2)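 Seeds sown in sandy loam one day before track-sprayer application of acetone solutions at 125–1000 g ai/ha (187 l/ha), then surface-watered to incorporate and bottom-watered. Injury scored visually at 14 days on a 0–100 scale (0 no damage, 100 complete death).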
# [3] = system: velvetleaf (Abutilon theophrasti, ABUTH); assay: as above; details: 14 days after application, rating scale 0-100
# How it was run: as §2
# [4] = system: common ragweed (Ambrosia artemisiifolia L., AMBEL); assay: as above; details: 14 days after application, rating scale 0-100
# How it was run: as §2
# [5] = system: sicklepod (Cassia obtusifolia, CASOB); assay: as above; details: 14 days after application, rating scale 0-100
# How it was run: as §2
# [6] = system: redroot pigweed (Amaranthus retroflexus, AMARE); assay: as above; details: 14 days after application, rating scale 0-100
# How it was run: as §2
# [7] = system: large crabgrass (Digitaria sanguinalis, DIGSA); assay: as above; details: 14 days after application, rating scale 0-100
# How it was run: as §2
# [8] = system: green foxtail (Setaria viridis, SETVI); assay: as above; details: 14 days after application, rating scale 0-100
# How it was run: as §2
# [9] = system: barnyardgrass (Echinochloa crusgalli, ECHCG); assay: as above; details: 14 days after application, rating scale 0-100
# How it was run: as §2
# [10] = system: lambsquarters (Chenopodium album, CHEAL); assay: as above; details: 14 days after application, rating scale 0-100
# How it was run: as §2
# [11] = system: ivyleaf morningglory (Ipomoea hederacea, IPOHE); assay: as above; details: 14 days after application, rating scale 0-100
# How it was run: as §2
# [12] = system: Johnsongrass (Sorghum halepense, SORHA); assay: Post-emerge greenhouse herbicide test, phytotoxicity rating; details: 14 days after application
# How it was run: as §1
# [13] = system: velvetleaf (Abutilon theophrasti, ABUTH); assay: as above; details: 14 days after application
# How it was run: as §1
# [14] = system: sicklepod (Cassia obtusifolia, CASOB); assay: as above; details: 14 days after application
# How it was run: as §1
# [15] = system: redroot pigweed (Amaranthus retroflexus, AMARE); assay: as above; details: 14 days after application
# How it was run: as §1
# [16] = system: large crabgrass (Digitaria sanguinalis, DIGSA); assay: as above; details: 14 days after application
# How it was run: as §1
# [17] = system: green foxtail (Setaria viridis, SETVI); assay: as above; details: 14 days after application
# How it was run: as §1
# [18] = system: barnyardgrass (Echinochloa crusgalli, ECHCG); assay: as above; details: 14 days after application
# How it was run: as §1
# [19] = system: lambsquarters (Chenopodium album, CHEAL); assay: as above; details: 14 days after application
# How it was run: as §1
# [20] = system: ivyleaf morningglory (Ipomoea hederacea, IPOHE); assay: as above; details: 14 days after application
# How it was run: as §1
# [21] = system: common ragweed (Ambrosia artemisiifolia L., AMBEL); assay: as above; details: 14 days after application
# How it was run: as §1
# [22] = system: upland rice (Oryza sp., var.Tebonnet, RICE); assay: Post-emerge greenhouse test, crop damage rating; details: 14 days after application
# How it was run: as §1
# [23] = system: field corn (Zea mays L., var. Dekalb 535, CORN); assay: Post-emerge greenhouse test, crop damage rating; details: 14 days after application
# How it was run: as §1
# [24] = system: soybean (Glycine max L., var. Pella 86, SOY); assay: Pre-emerge greenhouse test, crop damage rating; details: 14 days after application, rating scale 0-100
# How it was run: as §2
# [25] = system: upland rice (Oryza sp., var.Tebonnet, RICE); assay: Pre-emerge greenhouse test, crop damage rating; details: 14 days after application, rating scale 0-100
# How it was run: as §2
# [26] = system: field corn (Zea mays L., var. Dekalb 535, CORN); assay: Pre-emerge greenhouse test, crop damage rating; details: 14 days after application, rating scale 0-100
# How it was run: as §2
structure (smiles),measurement,setting,value
O=c1n(CCCF)nnn1-c1cc(Oc2ncccc2C(F)(F)F)c(Cl)cc1F [Compound 6-6],SOY crop damage rating (0-100),[1]; 63 g al/ha,10
same,SOY crop damage rating (0-100),[1]; 500 g al/ha,50
same,phytotoxicity rating SORHA,[2]; 125 g ai/ha,30
same,phytotoxicity rating SORHA,[2]; 500 g ai/ha,95
same,phytotoxicity rating ABUTH,[3]; 125 g ai/ha,80
same,phytotoxicity rating ABUTH,[3]; 500 g ai/ha,100
same,phytotoxicity rating AMBEL,[4]; 125 g ai/ha,30
same,phytotoxicity rating AMBEL,[4]; 500 g ai/ha,60
same,phytotoxicity rating CASOB,[5]; 125 g ai/ha,10
same,phytotoxicity rating CASOB,[5]; 500 g ai/ha,0
same,phytotoxicity rating AMARE,[6]; 125 g ai/ha,95
same,phytotoxicity rating AMARE,[6]; 500 g ai/ha,100
same,phytotoxicity rating DIGSA,[7]; 125 g ai/ha,20
same,phytotoxicity rating DIGSA,[7]; 500 g ai/ha,100
same,phytotoxicity rating SETVI,[8]; 125 g ai/ha,95
same,phytotoxicity rating SETVI,[8]; 500 g ai/ha,100
same,phytotoxicity rating ECHCG,[9]; 125 g ai/ha,20
same,phytotoxicity rating ECHCG,[9]; 500 g ai/ha,60
same,phytotoxicity rating CHEAL,[10]; 125 g ai/ha,100
same,phytotoxicity rating CHEAL,[10]; 500 g ai/ha,100
same,phytotoxicity rating IPOHE,[11]; 125 g ai/ha,30
same,phytotoxicity rating IPOHE,[11]; 500 g ai/ha,50
same,SORHA phytotoxicity rating (0-100),[12]; 63 g al/ha,0
same,SORHA phytotoxicity rating (0-100),[12]; 500 g al/ha,70
same,ABUTH phytotoxicity rating (0-100),[13]; 63 g al/ha,50
same,ABUTH phytotoxicity rating (0-100),[13]; 500 g al/ha,95
same,CASOB phytotoxicity rating (0-100),[14]; 63 g al/ha,0
same,CASOB phytotoxicity rating (0-100),[14]; 500 g al/ha,30
same,AMARE phytotoxicity rating (0-100),[15]; 63 g al/ha,70
same,AMARE phytotoxicity rating (0-100),[15]; 500 g al/ha,95
same,DIGSA phytotoxicity rating (0-100),[16]; 63 g al/ha,0
same,DIGSA phytotoxicity rating (0-100),[16]; 500 g al/ha,10
same,SETVI phytotoxicity rating (0-100),[17]; 63 g al/ha,10
same,SETVI phytotoxicity rating (0-100),[17]; 500 g al/ha,40
same,ECHCG phytotoxicity rating (0-100),[18]; 63 g al/ha,20
same,ECHCG phytotoxicity rating (0-100),[18]; 500 g al/ha,70
same,CHEAL phytotoxicity rating (0-100),[19]; 63 g al/ha,90
same,CHEAL phytotoxicity rating (0-100),[19]; 500 g al/ha,100
same,IPOHE phytotoxicity rating (0-100),[20]; 63 g al/ha,60
same,IPOHE phytotoxicity rating (0-100),[20]; 500 g al/ha,95
same,AMBEL phytotoxicity rating (0-100),[21]; 63 g al/ha,20
same,AMBEL phytotoxicity rating (0-100),[21]; 500 g al/ha,20
same,RICE crop damage rating (0-100),[22]; 63 g al/ha,20
same,RICE crop damage rating (0-100),[22]; 500 g al/ha,40
same,CORN crop damage rating (0-100),[23]; 63 g al/ha,5
same,CORN crop damage rating (0-100),[23]; 500 g al/ha,15
same,crop damage rating SOY,[24]; 125 g ai/ha,0
same,crop damage rating SOY,[24]; 500 g ai/ha,10
same,crop damage rating RICE,[25]; 125 g ai/ha,0
same,crop damage rating RICE,[25]; 500 g ai/ha,30
same,crop damage rating CORN,[26]; 125 g ai/ha,0
same,crop damage rating CORN,[26]; 500 g ai/ha,0
O=c1n(CCCF)nnn1-c1cc(Oc2ccc(C(F)(F)F)cn2)c(Cl)cc1F [Compound 6-8],SOY crop damage rating (0-100),[1]; 500 g al/ha,60
same,phytotoxicity rating SORHA,[2]; 500 g ai/ha,80
same,phytotoxicity rating ABUTH,[3]; 500 g ai/ha,80
same,phytotoxicity rating AMBEL,[4]; 500 g ai/ha,0
same,phytotoxicity rating CASOB,[5]; 500 g ai/ha,0
same,phytotoxicity rating AMARE,[6]; 500 g ai/ha,85
same,phytotoxicity rating DIGSA,[7]; 500 g ai/ha,75
same,phytotoxicity rating SETVI,[8]; 500 g ai/ha,100
same,phytotoxicity rating ECHCG,[9]; 500 g ai/ha,0
same,phytotoxicity rating CHEAL,[10]; 500 g ai/ha,100
same,phytotoxicity rating IPOHE,[11]; 500 g ai/ha,0
same,SORHA phytotoxicity rating (0-100),[12]; 500 g al/ha,10
same,ABUTH phytotoxicity rating (0-100),[13]; 500 g al/ha,98
same,CASOB phytotoxicity rating (0-100),[14]; 500 g al/ha,40
same,AMARE phytotoxicity rating (0-100),[15]; 500 g al/ha,80
same,DIGSA phytotoxicity rating (0-100),[16]; 500 g al/ha,20
same,SETVI phytotoxicity rating (0-100),[17]; 500 g al/ha,90
same,ECHCG phytotoxicity rating (0-100),[18]; 500 g al/ha,10
same,CHEAL phytotoxicity rating (0-100),[19]; 500 g al/ha,95
same,IPOHE phytotoxicity rating (0-100),[20]; 500 g al/ha,60
same,AMBEL phytotoxicity rating (0-100),[21]; 500 g al/ha,20
same,RICE crop damage rating (0-100),[22]; 500 g al/ha,35
same,CORN crop damage rating (0-100),[23]; 500 g al/ha,5
same,crop damage rating SOY,[24]; 500 g ai/ha,0
same,crop damage rating RICE,[25]; 500 g ai/ha,10
same,crop damage rating CORN,[26]; 500 g ai/ha,0
